Laboratory results: US4113856A, “Antibiotic mm 13902” (Beecham Group Limited, priority 1974, dated 1978)
Entries after “also recorded” stand apart in the source; their conditions may differ. Where a name gives a salt, the structure may show the parent alone. Each block holds one compound with its values, some of them ahead of it.

Experiments:
Proteus mirabilis 889 = experiment: MIC by serial dilution in nutrient agar (Table 2); type: cell-based; details: ampicillin alone
E. coli B11 = experiment: MIC by serial dilution in nutrient agar (Table 2); type: cell-based; details: ampicillin alone
[1] = system: Klebsiella aerogenes IP282; experiment: MIC by serial dilution in nutrient agar (Table 2); type: cell-based; details: ampicillin alone
E. coli JT417 = experiment: MIC by serial dilution in nutrient agar (Table 2); type: cell-based; details: ampicillin alone
E. coli JT39 = experiment: MIC by serial dilution in nutrient agar (Table 2); type: cell-based; details: ampicillin alone
Proteus rettgeri R110 = experiment: MIC by serial dilution in nutrient agar (Table 2); type: cell-based; details: ampicillin alone
Staph.aureus (Russell) = experiment: MIC by serial dilution in nutrient agar (Table 2); type: cell-based; details: ampicillin alone
Proteus mirabilis 247 = experiment: MIC by serial dilution in nutrient agar (Table 2); type: cell-based; details: ampicillin alone
Proteus morganii F = experiment: MIC by serial dilution in nutrient agar (Table 2); type: cell-based; details: ampicillin alone
Staph.aureus (Russell H) = experiment: MIC by serial dilution in nutrient agar (Table 2); type: cell-based; details: ampicillin alone
Escherichia coli 10418 = experiment: bioautography zone diameter (Table 4); type: cell-based; details: TLC cellulose, butanol/isopropyl alcohol/water 7:7:6
Klebsiella aerogenes [2] = experiment: synergy with benzylpenicillin; type: cell-based; details: extracts from cellulose thin layer
From the text: (§1) In a further experiment, the two substances were separated on a cellulose thin layer developed with isopropanol:water (8:2) and extracted from the cellulose with phosphate buffer.

[3] = system: Staphylococcus aureus(Oxford); experiment: bioautography zone diameter (Table 4); type: cell-based; details: TLC cellulose, butanol/isopropyl alcohol/water 7:7:6
Proteus morganii = experiment: bioautography zone diameter (Table 4); type: cell-based; details: TLC cellulose, butanol/isopropyl alcohol/water 7:7:6
[4] = system: B. subtilis, Staphylococcus aureus, Escherichia coli, Salmonella typhimurium, Proteus mirabilis, Proteus morganii and Klebsiella aerogenes; experiment: detection by bioautography after TLC on cellulose (in words); type: cell-based, bacteria (various species)
dopa decarboxylase = experiment: enzyme inhibition (general enzyme poison check); type: biochemical; details: at concentrations in excess of those required to inhibit E. coli β-lactamase
Bacillus subtilis = experiment: bioautography zone diameter (Table 4); type: cell-based; details: TLC cellulose, butanol/isopropyl alcohol/water 7:7:6
chymotrypsin = experiment: enzyme inhibition (general enzyme poison check); type: biochemical; details: at concentrations in excess of those required to inhibit E. coli β-lactamase
Klebsiella aerogenes [5] = experiment: bioautography zone diameter (Table 4); type: cell-based; details: TLC cellulose, butanol/isopropyl alcohol/water 7:7:6
monoamine oxidase = experiment: enzyme inhibition (general enzyme poison check); type: biochemical; details: at concentrations in excess of those required to inhibit E. coli β-lactamase
carbonic anhydrase = experiment: enzyme inhibition (general enzyme poison check); type: biochemical; details: at concentrations in excess of those required to inhibit E. coli β-lactamase
[6] = system: β-lactamase of Klebsiella aerogenes; experiment: β-lactamase inhibition (in words); type: biochemical
[7] = system: β-lactamase of Staphylococcus aureus; experiment: β-lactamase inhibition (in words); type: biochemical
[8] = system: various species including strains of Staphylococcus aureus, Bacillus subtilis, Escherichia coli, Klebsiella aerogenes, Proteus mirabilis; experiment: antibacterial activity against various species (in words); type: cell-based, bacteria (various species); details: sodium salt
trypsin = experiment: enzyme inhibition (general enzyme poison check); type: biochemical; details: at concentrations in excess of those required to inhibit E. coli β-lactamase
urease = experiment: enzyme inhibition (general enzyme poison check); type: biochemical; details: at concentrations in excess of those required to inhibit E. coli β-lactamase
Escherichia coli 311 = experiment: bioautography zone diameter (Table 4); type: cell-based; details: TLC cellulose, butanol/isopropyl alcohol/water 7:7:6
Enterobacter aerogenes = experiment: bioautography zone diameter (Table 4); type: cell-based; details: TLC cellulose, butanol/isopropyl alcohol/water 7:7:6
[9] = system: Staphylococcus aureus(Russell); experiment: bioautography zone diameter (Table 4); type: cell-based; details: TLC cellulose, butanol/isopropyl alcohol/water 7:7:6
[10] = system: Escherichia coli, Klebsiella aerogenes, Proteus mirabilis, Proteus morganii and Staphylococcus aureus Russell; experiment: synergy with ampicillin (in words); type: cell-based, bacteria (various species); details: mixed with ampicillin
[11] = system: Escherichia coli β-lactamase; experiment: β-lactamase inhibition (in words); type: biochemical
From the text: as §1

stability = type: physicochemical
solubility = details: sodium salt
[12] = activity in arbitrary units per mg; details: Example 3
Protocol: The material produced above was arbitrarily assigned an activity of 340 l/ml. Assays were determined as described in Description 3.

SMILES: CC1(C)S[C@@H]2[C@H](NC(=O)[C@H](N)c3ccccc3)C(=O)N2[C@H]1C(=O)O [Ampicillin]
- minimum inhibitory concentration (Proteus mirabilis 889): > 500
- minimum inhibitory concentration (E. coli B11): > 500
- minimum inhibitory concentration [1]: 50
- minimum inhibitory concentration (E. coli JT417): 250
- minimum inhibitory concentration (E. coli JT39): > 500
- minimum inhibitory concentration (Proteus rettgeri R110): 250
- minimum inhibitory concentration (Staph.aureus (Russell)): 250
- minimum inhibitory concentration (Proteus mirabilis 247): > 500
- minimum inhibitory concentration (Proteus morganii F): 50
- minimum inhibitory concentration (Staph.aureus (Russell H)): > 500

SMILES: CC(=O)N/C=C/[S+]([O-])C1=C(C(=O)O)N2C(=O)C(C(C)OS(=O)(=O)O)C2C1 (centres unmarked) [MM 4550A]
- Zone Diameter on Bioautography (Escherichia coli 10418): 20.0 mm
- synergy with benzylpenicillin (Klebsiella aerogenes [2]): shown to be synergistic with benzylpenicillin
- Zone Diameter on Bioautography [3]: 13.0 mm
- Zone Diameter on Bioautography (Proteus morganii): 16.0 mm
- detection by bioautography [4]: may be detected by bioautography on a variety of organisms
- inhibition of dopa decarboxylase (dopa decarboxylase): does not inhibit
- Zone Diameter on Bioautography (Bacillus subtilis): 24.0 mm
- inhibition of chymotrypsin (chymotrypsin): does not inhibit
- Zone Diameter on Bioautography (Klebsiella aerogenes [5]): 20.0 mm
- inhibition of monoamine oxidase (monoamine oxidase): does not inhibit
- inhibition of carbonic anhydrase (carbonic anhydrase): does not inhibit
- β-lactamase inhibition [6]: possesses enzyme inhibitory activity
- β-lactamase inhibition [7]: possesses enzyme inhibitory activity
- antibacterial activity [8]: possesses antibacterial activity
- inhibition of trypsin (trypsin): does not inhibit
- inhibition of urease (urease): does not inhibit
- Zone Diameter on Bioautography (Escherichia coli 311): 17.5 mm
- Zone Diameter on Bioautography (Enterobacter aerogenes): 6.5 mm
- Zone Diameter on Bioautography [9]: 12.0 mm
- synergy with ampicillin [10]: synergyses its activity
- β-lactamase inhibition [11]: possesses enzyme inhibitory activity; also recorded: shown to be inhibitors

SMILES: CC(=O)N/C=C/SC1=C(C(=O)O)N2C(=O)C(C(C)OS(=O)(=O)O)C2C1 (centres unmarked) [MM 13902]
- synergy with benzylpenicillin (Klebsiella aerogenes [2]): shown to be synergistic with benzylpenicillin
- Zone Diameter on Bioautography [3]: 4.0 mm
- detection by bioautography [4]: may be detected by bioautography on a variety of organisms
- Zone Diameter on Bioautography (Klebsiella aerogenes [5]): 20.0 mm
- stability (stability): tends to be unstable when in the unsalted acid form; also recorded: not sufficiently stable
- antibacterial activity [8]: possessed antibacterial activity
- Zone Diameter on Bioautography (Enterobacter aerogenes): No Zone
- Zone Diameter on Bioautography [9]: 4.0 mm
- solubility in chloroform, diethylether and hydrocarbons (solubility): substantially insoluble
- solubility in methanol (solubility): soluble
- solubility in water (solubility): highly soluble
- synergy with ampicillin [10]: synergizes its activity
- β-lactamase inhibition [11]: shown to be inhibitors
- activity ([12]; partially purified salt, brown solid): 37,000 units/mg

SMILES: CC(=O)NC=CSC1=C(C(=O)O)N2C(=O)C(C(C)OS(=O)(=O)O)C2C1 (centres unmarked) [di-sodium salt of MM 13902]
- activity ([12]; di-sodium salt after cellulose chromatography, yellowish powder): 73,000 units/mg

- stability (stability): not sufficiently stable
SMILES: CC(=O)NC=CSC1=C(C(=O)O)N2C(=O)C(C(C)OS(=O)(=O)O)C2C1 (centres unmarked) [monobasic salts of MM 13902]
